Where “and” joins values, the source holds several entries; their conditions need not be identical. Equal values may be shown once.
Tested on: metastatic colorectal cancer
Assay: Study 1: retrospective cohort, XCEL with or without radiation; tumor response (RECIST), PFS and OS
Type: in vivo, human
Description: The institutional review board of The University of Texas M. D. Anderson Cancer Center approved this retrospective expanded cohort study. Between October 2000 and December 2003, seventy-four patients with metastatic colorectal cancer received capecitabine with concurrent celecoxib (n=66), or rofecoxib (n=2), ibuprofen (n=2), sulindac (n=2) and high dose aspirin (n=2).
The radiation was delivered to the target area using 18 MV photons with 3-D conformal planning technique. The dose of radiation was either 35-40 Gy (n=18) or >45 Gy (n=15) with dose radiation missing in one patient. […] Celecoxib was continued with capecitabine to prevent HFS and to improve survival.
All patients were subjected to routine clinical examinations, laboratory analyses, and computed tomography. Patients were seen weekly during radiotherapy if treated on site or every 6-9 weeks with physical examinations, laboratory tests, and computed tomography. Treatment-related toxicity was graded using the National Institutes of Health's Common Toxicities Criteria (CTC) version 2.0. Tumor responses were evaluated using RECIST criteria. Complete response was defined as complete radiographic disappearance of measurable or evaluable disease or stable, minimal radiographic findings; partial response was defined as reduction of the longest dimension of measurable disease by at least 50%; stable disease was defined as reduction of the longest dimension by less than 25%; These responses or stable must be confirmed at least by 3 months interval evaluation; Progressive disease was defined as growth of the tumor by more than 25% in the longest dimension or development of new lesions. Overall response rate was defined as the sum of the complete and partial response rates and the tumor control rate was defined as the sum of overall response rates with stable disease rates. The date of death was ascertained through the cancer registry or through a search of patients' social security numbers in the Social Security Death Index (ssdi.genealogy.rootsweb.com). The cutoff point for collection of data was April 2004.
Continuous variables were summarized using the mean (±standard deviation) or the median (range). […] Progression-free and overall survival distributions were summarized using the method of Kaplan and Meier. Differences in progression-free and overall survival by subgroup were analyzed using the log-rank test. Multivariate models of predictors of progression-free survival and overall survival were evaluated using the proportional hazards (Cox) regression model. P<0.05 was considered statistically significant.

[1] = First-line responders, no radiation (n = 5)
[2] = First-line responders, radiation (n = 4)
[3] = First-line, no radiation (n = 14)
[4] = Second-line, no radiation (n = 13)
[5] = Second-line, radiation (n = 20)
[6] = second-line XCEL, progressed on 5FU and irinotecan (n=28)
[7] = second-line with 9 first-line responding patients included
[8] = second-line, irinotecan refractory

Compound: Cc1ccc(-c2cc(C(F)(F)F)nn2-c2ccc(S(N)(=O)=O)cc2)cc1 [XCEL]
- Overall Survival, Median (95% CI) (All): 22.0 (17.8-31.5) months
- Progression-free survival, Median (95% CI) (All): 8.3 (7.0-11.0) months
- Overall Survival, Median (95% CI) (CEA >3.0 ng/ml): 20.0 (16.2-26.9) months
- Progression-free survival, Median (95% CI) (CEA >3.0 ng/ml): 7.1 (5.7-9.4) months
- Overall Survival, Median (95% CI) (CEA ≦3.0 ng/ml): 31.5 (18.0-NR) months
- Progression-free survival, Median (95% CI) (CEA ≦3.0 ng/ml): 16.8 (9.4-NR) months
- Complete response [1]: 4 (80) No. of patients (%)
- Overall response [1]: 4 (80) No. of patients (%)
- Partial response [1]: 0 (0) No. of patients (%)
- Stable disease [1]: 0 (0) No. of patients (%)
- Tumor control [1]: 4 (80) No. of patients (%)
- Complete response [2]: 3 (75) No. of patients (%)
- Overall response [2]: 4 (100) No. of patients (%)
- Partial response [2]: 1 (0) No. of patients (%)
- Stable disease [2]: 0 (0) No. of patients (%)
- Tumor control [2]: 4 (100) No. of patients (%)
- Complete response [3]: 1 (7) No. of patients (%)
- Overall response [3]: 4 (29) No. of patients (%)
- Partial response [3]: 3 (21) No. of patients (%)
- Stable disease [3]: 8 (57) No. of patients (%)
- Tumor control [3]: 12 (86) No. of patients (%)
- Complete response (First-line, radiation (n = 10)): 3 (30) No. of patients (%)
- Overall response (First-line, radiation (n = 10)): 4 (40) No. of patients (%)
- Partial response (First-line, radiation (n = 10)): 3 (20) No. of patients (%)
- Stable disease (First-line, radiation (n = 10)): 4 (40) No. of patients (%)
- Tumor control (First-line, radiation (n = 10)): 8 (80) No. of patients (%)
- Progression-free survival, Median (95% CI) (LDH >618): 6.4 (4.3-7.2) months
- Progression-free survival, Median (95% CI) (LDH ≦618): 14.5 (9.2-26.3) months
- Overall Survival, Median (95% CI) (LDH ≦618 (normal level of LDH)): 31 months and 31.5 (23.6-NR) months
- Overall Survival, Median (95% CI) (No Radiation (RT)): 20.0 (16.6-22.8) months
- Progression-free survival, Median (95% CI) (No Radiation (RT)): 7.2 (4.8-9.4) months
- Complete response (No radiation (n = 32)): 4 (13) No. of patients (%)
- Overall response (No radiation (n = 32)): 10 (31) No. of patients (%)
- Partial response (No radiation (n = 32)): 6 (19) No. of patients (%)
- Stable disease (>4 months) (No radiation (n = 32)): 13 (41) No. of patients (%)
- Tumor control (No radiation (n = 32)): 23 (72) No. of patients (%)
- Overall Survival, Median (95% CI) (No surgery): 19.3 (16.2-26.9) months
- Progression-free survival, Median (95% CI) (No surgery): 7.8 (6.4-9.4) months
- Progression-free survival, Median (95% CI) (RT <45 Gy): 8.0 (6.4-14.6) months
- Overall Survival, Median (95% CI) (RT ≧45 Gy): 21.8 (17.6-NR) months
- Progression-free survival, Median (95% CI) (RT ≧45 Gy): 21.2 (7.1-21.2) months
- Complete response (Radiation (n = 34)): 9 (26) No. of patients (%)
- Overall response (Radiation (n = 34)): 15 (44) No. of patients (%)
- Partial response (Radiation (n = 34)): 6 (18) No. of patients (%)
- Stable disease (>4 months) (Radiation (n = 34)): 12 (35) No. of patients (%)
- Tumor control (Radiation (n = 34)): 27 (79) No. of patients (%)
- Complete response [4]: 0 No. of patients (%)
- Overall response [4]: 2 (15) No. of patients (%)
- Partial response [4]: 2 (15) No. of patients (%)
- Stable disease [4]: 5 (38) No. of patients (%)
- Tumor control [4]: 7 (54) No. of patients (%)
- Complete response [5]: 2 (10) No. of patients (%)
- Overall response [5]: 7 (35) No. of patients (%)
- Partial response [5]: 5 (25) No. of patients (%)
- Stable disease [5]: 8 (40) No. of patients (%)
- Tumor control [5]: 15 (75) No. of patients (%)
- Progression-free survival, Median (95% CI) (Surgery): 16.8 (8.3-31.4) months
- patients achieving complete response (after first-line response to irinotecan-based therapy): 7 of 9
- second line overall response rate (all 9 first-line irinotecan responders included): 40.5%
- complete response (CR) (all 66 patients): 20%
- overall response rate (all 66 patients): 38%
- partial response (PR) (all 66 patients): 18%
- tumor control rate (all 66 patients): 76%
- median PFS (first-line XCEL): 8.3 months
- median overall survival (first-line XCEL): 26.9 months
- Stable disease (%) (first-line XCEL (n=24)): 50%
- complete response (CR) (first-line XCEL (n=24)): 17%
- overall response rate (first-line XCEL (n=24)): 34% and 33%
- tumor control rate (first-line XCEL (n=24)): 84%
- complete responses (nineteen of 66 patients, XCEL alone or with radiation): 29%
- complete response by site (nodal metastasis): 51%
- complete response by site (peritoneum): 40%
- Stable disease (%) (second-line XCEL (n=28)): 50%
- complete response (CR) [6]: 7%
- overall response rate [6]: 25%
- tumor control rate [6]: 68%
- median overall survival [7]: 19.3 months
- median progression free survival [7]: 8.3 months
- median PFS [8]: 6.7 months
- median overall survival [8]: 17.8 months and 17.6 months

Reference: patent publication US9260760B2, “Method for determining complete response to anticancer therapy” (Board of Regents, The University of Texas System, priority 2012, dated 2016)
